Measured values reported in patent US20240270762A1, “PENICILLIN-BINDING PROTEIN INHIBITORS” (priority 2021, published 2024).
≈ marks a conversion by molar mass, not a printed value.

How the values were obtained:
[1] = test system: A. baumannii ATCC 19606; assay: microbe, parasite or virus in culture; type: cell-based; conditions: Acinetobacter baumannii, ATCC19606, read-out: MIC, A. baumannii ATCC 19606
[2] = test system: E. coli D22; assay: microbe, parasite or virus in culture; type: cell-based; conditions: Escherichia coli, D22, read-out: MIC E. coli D22
[3] = test system: P. aeruginosa ATCC 35151; assay: microbe, parasite or virus in culture; type: cell-based; conditions: Pseudomonas aeruginosa, ATCC35151, read-out: MIC P. aeruginosa ATCC 35151
[4] = test system: E. coli AG100A; assay: Broth microdilution MIC in CAMHB; type: cell-based; conditions: Escherichia coli, read-out: MIC E. coli AG100A
[5] = test system: E. coli AG100; assay: microbe, parasite or virus in culture; type: cell-based; conditions: Escherichia coli, AG100, read-out: MIC E. coli AG100
[6] = test system: K. pneumoniae SI-117; assay: microbe, parasite or virus in culture; type: cell-based; conditions: Klebsiella pneumoniae, SI117, read-out: MIC K. pneumoniae SI-117
[7] = test system: E. coli 901C; assay: microbe, parasite or virus in culture; type: cell-based; conditions: Escherichia coli, read-out: MIC E. coli 901C
[8] = target: T1, PBP3 from Pseudomonas aeruginosa (PAO1) (Pseudomonas aeruginosa, UniProt G3XD46); assay: Bocillin-FL fluorescence polarization competition binding, P. aeruginosa PBP3; conditions: Binding affinity to P. aeruginosa PBP3; fluorescence polarization competition binding assay using Bocillin-FL; read-out: P. aeruginosa PBP3 Potency
T1 construct: made in house
T1 sequence (G3XD46 whole entry): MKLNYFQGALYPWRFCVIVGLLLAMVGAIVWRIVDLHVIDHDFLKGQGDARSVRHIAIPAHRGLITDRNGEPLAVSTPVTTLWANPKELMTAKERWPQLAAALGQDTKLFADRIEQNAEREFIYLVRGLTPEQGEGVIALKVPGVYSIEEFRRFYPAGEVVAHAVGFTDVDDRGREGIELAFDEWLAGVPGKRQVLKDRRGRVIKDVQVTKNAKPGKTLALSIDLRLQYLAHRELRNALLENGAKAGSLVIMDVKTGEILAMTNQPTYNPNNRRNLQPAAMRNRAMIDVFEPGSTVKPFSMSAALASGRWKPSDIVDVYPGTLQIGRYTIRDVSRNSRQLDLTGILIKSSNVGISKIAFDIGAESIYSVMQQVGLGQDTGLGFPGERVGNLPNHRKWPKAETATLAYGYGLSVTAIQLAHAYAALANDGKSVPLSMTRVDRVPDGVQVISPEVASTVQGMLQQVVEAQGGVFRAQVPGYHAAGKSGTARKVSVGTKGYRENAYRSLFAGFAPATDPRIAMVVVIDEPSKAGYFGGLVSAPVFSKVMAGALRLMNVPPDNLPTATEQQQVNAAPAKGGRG
Source text: (§1) To determine the ability of boronic acid-based test PBP inhibitors to bind Penicillin Binding Proteins (PBPs), Bocillin-FL (fluorescently-labeled penicillin V; ThermoFisher Scientific) was used in a fluorescence polarization (FP) competition binding assay to assess inhibitor binding to PBP3 from Escherichia coli (K-12), PBP3 from Pseudomonas aeruginosa (PAO1), PBP1a and PBP3 from Acinetobacter baumannii (ATCC 19606), and PBP2 from Neisseria gonorrhoeae (FA19). PBPs were cloned and purified as described previously (E. coli PBP3, King, D. T, et al., ACS Infectious Diseases 2015, 1, 175-184; P. aeruginosa PBP3, Han et. al., PNAS 2010, 107 (51), 22002-22007; A. baumannii PBPs, Penwell et. al., Antimicrob. Agents Chemother. 2015, 59 (3), 1680-1689; N. gonorrhoeae PBP2, Singh et. al., J. Biol. Chem. 2019, 294 (38), 14020-14032). To establish assay conditions for competition binding, enzyme titration/saturation binding experiments were initially performed. Bocillin-FL was prepared at 0.2 μM in a buffer comprised of 50 mM Hepes (pH 8.0), 300 mM NaCl and 10% (v/v) glycerol for reactions with E. coli, P. aeruginosa and N. gonorrhoeae PBPs, and 25 mM Tris (pH 8.0), 200 mM NaCl, 10% (v/v) glycerol and 0.005% (v/v) Tween 20 for reactions with A. baumannii PBPs. Saturation binding was performed by mixing 40 μl of PBP solutions ranging in concentrations from 0-24 μM with 40 μl of the 0.2 μM Bocillin-FL solution, in individual wells of a black 384-well microplate. FP was measured immediately upon mixing (Excitation, 490 nm; Emission, 520 nm; g-factor, 0.96), using a Cytation3 (BioTek) microplate reader and measured continuously for up to 120 minutes. The FP response stabilized after 15 minutes for P. aeruginosa and A. baumannii PBP3, 30 minutes for E. coli PBP3 and A. baumannii PBP1a, and less than 1 minute for N. gonorrhoeae PBP2. […] The competition binding assay (80 μl final volume) was validated using beta-lactams and PBPs at final concentrations of: 1.5 μM for E. coli PBP3; 0.75 μM for P. aeruginosa PBP3; 1 μM for A. baumannii PBP1a; 0.2 μM for A. baumannii PBP3; and 0.25 μM for N. gonorrhoeae PBP2. Bocillin-FL was at 0.1 μM (0.05 μM with A. baumannii PBP1a) and beta-lactam concentrations ranged from 0-1,000 μM. E. coli PBP3 was incubated with increasing concentrations of ampicillin in a black 384-well microplate (Corning) for 30 minutes. P. aeruginosa PBP3 was incubated for 15 minutes with aztreonam, whereas A. baumannii PBP1a and PBP3 were incubated for 15 minutes with meropenem, and then Bocillin-FL was added followed immediately by the FP measurement for up to 60 minutes. […] The beta-lactam potency was reported as the concentration of beta-lactam required to reduce the amount of PBP bound-Bocillin-FL by 50% (EC50). […] The EC50 of aztreonam was determined to be <0.5 μM for P. aeruginosa PBP3. […] Binding assays for boronic acid PBP inhibitors were performed in an identical fashion for the respective PBPs.

[9] = test system: P. aeruginosa ATCC 27853; assay: microbe, parasite or virus in culture; type: cell-based; conditions: Pseudomonas aeruginosa, ATCC27853, read-out: MIC P. aeruginosa ATCC 27853
[10] = test system: E. coli ATCC 25922; assay: microbe, parasite or virus in culture; type: cell-based; conditions: Escherichia coli, ATCC25922, read-out: MIC E. coli 25922
[11] = target: T2, PBP3 from Escherichia coli (K-12) (Escherichia coli, UniProt P0AD68); assay: Bocillin-FL fluorescence polarization competition binding, E. coli PBP3
T2 construct: made in house
T2 sequence (P0AD68 1-577): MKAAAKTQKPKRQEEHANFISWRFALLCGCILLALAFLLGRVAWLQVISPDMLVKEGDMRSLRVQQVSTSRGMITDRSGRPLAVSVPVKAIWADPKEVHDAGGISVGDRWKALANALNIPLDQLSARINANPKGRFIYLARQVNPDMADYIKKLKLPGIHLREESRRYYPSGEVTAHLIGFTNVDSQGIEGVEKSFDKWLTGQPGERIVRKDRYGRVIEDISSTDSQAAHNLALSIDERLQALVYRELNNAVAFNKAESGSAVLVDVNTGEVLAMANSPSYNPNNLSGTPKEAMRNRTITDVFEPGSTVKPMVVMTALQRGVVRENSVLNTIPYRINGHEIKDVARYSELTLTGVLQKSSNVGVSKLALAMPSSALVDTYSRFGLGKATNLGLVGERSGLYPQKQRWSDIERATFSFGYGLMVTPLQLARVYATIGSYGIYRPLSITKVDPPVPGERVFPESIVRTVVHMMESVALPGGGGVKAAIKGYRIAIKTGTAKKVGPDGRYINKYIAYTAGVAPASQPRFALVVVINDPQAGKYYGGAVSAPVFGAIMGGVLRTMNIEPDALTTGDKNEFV
Source text: as §1

[12] = test system: K. pneumoniae UMM; assay: microbe, parasite or virus in culture; type: cell-based; conditions: Klebsiella pneumoniae, read-out: MIC K. pneumoniae UMM
[13] = test system: P. aeruginosa (ΔmexAB-oprM); assay: Broth microdilution MIC in CAMHB; type: cell-based; conditions: Pseudomonas aeruginosa; read-out: MIC P. aeruginosa ΔmexAB-oprM
[14] = test system: K. pneumoniae 848844; assay: microbe, parasite or virus in culture; type: cell-based; conditions: Klebsiella pneumoniae, 848844, read-out: MIC K. pneumoniae 848844

## O=C(N[C@@H](C(=O)N[C@H]1Cc2cccc(C(=O)O)c2OB1O)c1ccc(P(=O)(O)O)cc1)c1cnc2ccnn2c1 (single isomer, unassigned) [Example 187]
[1]
  MIC: > 128 µg/mL
[2]
  MIC: 32 to 64 µg/mL (≈ 56.6 to 113 µM)
[3]
  MIC: 2 to 4 µg/mL (≈ 3.54 to 7.08 µM)
[4]
  MIC: > 128 µg/mL
[5]
  MIC: > 128 µg/mL
[6]
  MIC: > 128 µg/mL
[7]
  MIC: 8 to 16 µg/mL (≈ 14.2 to 28.3 µM)
[8]
  IC50: < 10 µM
[9]
  MIC: > 128 µg/mL
[10]
  MIC: > 128 µg/mL
[11]
  EC50: 10 to 50 µM
[12]
  MIC: > 128 µg/mL
[13]
  MIC: 32 to 64 µg/mL (≈ 56.6 to 113 µM)
[14]
  MIC: > 128 µg/mL
